Experimental data as given in patent US20240197678A1, “INHIBITORS OF THE PEPTIDYL-PROLYL CIS/TRANS ISOMERASE (PIN1) AND USES THEREOF” (DANA-FARBER CANCER INSTITUTE, INC., priority 2021, published 2024).
pKi: −log10 of the molar value. “Also recorded” adds a separate entry of the source.

Experiments:
Pin1 [1] = target: T1, Pin1 (Homo sapiens, UniProt Q13526); test: Fluorescence polarization (FP) assay, binding to Pin1; conditions: for pKi: 1 h incubation with Pin1, read-out: Ki (binding affinity to Pin1, Kenakin Ki from FP EC50)
T1 sequence (Q13526 whole entry): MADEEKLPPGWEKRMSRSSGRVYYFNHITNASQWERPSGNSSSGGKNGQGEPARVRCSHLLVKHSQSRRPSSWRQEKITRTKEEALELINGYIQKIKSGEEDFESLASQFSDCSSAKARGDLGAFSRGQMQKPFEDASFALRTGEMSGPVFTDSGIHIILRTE
Method: FIG. 3 is a fluorescence polarization readout following 1 h incubation of the indicated compounds with Pin1. Data points are plotted as the average of n=3 independent samples+SEM. Binding affinity to Pin1 was determined using a fluorescence polarization assay. Ki values obtained from the FP assay results were derived from the Kenakin Ki equation: Kenakin Ki=(Lb)(EC50)(Kd)/(Lo)(Ro)+Lb(Ro−Lo+Lb−Kd), where Kd [M]: Kd of the probe, EC50 [M]: obtained from FP assay, total tracer Lo [M]: probe concentration in FP, bound tracer Lb [M]: 85% of probe concentration binds to target protein, total receptor Ro [M]: Pin1 concentration in the FP assay, as described (Auld et al. Receptor binding assays for HTS and drug discovery. in Assay Guidance Manual eds. Sittampalam, G.S., et al. Eli Lilly & Company and the National Center for Advancing Translational Sciences, 2004).

Pin1 [2] = target: T1, Pin1; test: Molt4 cells competition with Pin1-3 desthiobiotin probe, streptavidin pull-down and immunoblot (Pin1 engagement); format: cell-based; set-up: endogenous in cells; host or cells: Molt4; conditions: Molt4 cells treated 5 h, streptavidin pull-down, immunoblot
Method: FIG. 4 is an immunoblot displaying the result of Molt4 cells treated in a competition format with the indicated concentrations of Pin1-3, Pin1-3 P1, and Pin1-3 P2 for 5 h, followed by cell lysis, incubation with TM-03-163 (Pin1-3 desthiobiotin), streptavidin pull-down, and immunoblot analysis. […] Molt4 cells were treated in a competition format with Pin1-3, Pin1-3 P1, and Pin1-3 P2 for 5 h, followed by cell lysis, incubation with […] (Pin1-3 desthiobiotin), followed by streptavidin pulldown and immunoblot analysis.

pKi (Pin1 [1]) | Ki (binding affinity to Pin1, Kenakin Ki from FP EC50) (Pin1 [1]; 1 h incubation with Pin1) | SMILES | Engagement of Pin1 in Molt4 cells (Pin1 [2])
~6.54 |  | CC(C)(C)CN(C(=O)CCl)C1CCS(=O)(=O)C1 (racemic) [Pin1-3, reference compound] | 
~7.15 |  | CC(C)(C)CN(C(=O)CCl)[C@@H]1CCS(=O)(=O)C1 (single isomer, unassigned) [Pin1-3 P1] | engages Pin1 more potently than Pin1-3
 | unable to be determined | CC(C)(C)CN(C(=O)CCl)[C@H]1CCS(=O)(=O)C1 [Pin1-3 P2, (S)-2-chloro-N-(1,1-dioxidotetrahydrothiophen-3-yl)-N-neopentylacetamide] | did not display engagement; also recorded: no engagement
